Patent publication US12421206B2, “Aryl-n-aryl derivatives for treating a RNA virus infection” (ABIVAX, priority 2018, dated 2025)

Each compound was assayed on RSV A2 (assay: RSV inhibition (cytopathic effect inhibition) using Viral ToxGlo assay in HEp-2 cells). Conditions: human respiratory syncytial virus, RSV A2, MOI 0.5, HEp-2 cells, 72 h p.i.
Assay type: cell-based
Method: Protocol for Screening Antiviral Compounds for RSV Inhibition and Cytotoxicity Using Viral ToxGlo Assay
HEp-2 cells were maintained in Eagle's minimum essential medium (EMEM) with Earle's BSS adjusted to contain 2 mM L-glutamine, 10% fetal bovine serum, 100 U/ml penicillin and 100 μg/ml streptomycin. For the purposes of the screening assay they were grown to 90% confluency, trypsinized and recovered. The trypsin was neutralised with cell culture media and cells were centrifuged at 150×g for 5 minutes before discarding the supernatant and resuspending cell pellet in assay media (EMEM with Earle's BSS adjusted to contain 2 mM L-glutamine, 2% fetal bovine serum and 100 U/ml penicillin and 100 μg/ml streptomycin). The cells were seeded into white clear-bottomed cell culture plates at a density of 1.5×10^4 cells/well in 50 μl and 4×10^3 cells/well in 25 μl for 96 well plates and 384 well plates respectively. For the media/background control column assay media only was added. Cell plates were placed in a humid chamber and incubated overnight at 37° C./5% CO2. After overnight incubation cells were checked for confluency and healthy appearance.
Test articles were made up at 10× test concentration in a maximum DMSO concentration of 10% (final assay concentration maximal 1% DMSO) and added to the cell plates in volumes of 10 μl for 96 well plates and 5 μl for 384 well plates. For cell control and virus control wells the test article solvent only was added. Virus or assay media for cytotoxicity test wells and media/cell control wells was added immediately after test articles at an MOI of 0.5, 40 or 20 μl for 96 and 384 well plates respectively. Virus suspension was prepared by thawing RSV A2 frozen stocks and diluting to the required concentration of plaque forming units in assay media on ice.
Cell plates were further incubated inside a humid chamber for 72 h p.i at 37° C./5% CO2. After the incubation period cells were observed under the microscope to check for characteristic cytopathic effect in virus control wells and healthy cells in the cell control wells. After plates were adjusted to room temperature 20/40 μl Viral ToxGlo (Promega) was added to each well of the 384/96 well cell plates. Plates were incubated at room temperature, protected from light on a plate rocker for 20 minutes before measuring the luminescence on a spectrophotometer (Biotek Synergy HTX).
RSV inhibition was calculated as percentage of cytopathic effect inhibition relative to the virus control and cytotoxicity as percentage of cell survival relative to cell control wells. This allowed EC50 values to be calculated for each test article where a virus inhibition or cytotoxic dose response was identified.

First: O=C(NCCC1CCCC1)c1cccc(Nc2ccc(OCc3ccccn3)cc2C2CC2)c1 [Compound 60, N-(2-cyclopentylethyl)-3-((2-cyclopropyl-4-(pyridin-2-ylmethoxy)phenyl)amino)benzamide]
Second: O=C(NCCC1CCCCC1)c1cccc(Nc2ccc(OCc3ccccn3)cc2C2CC2)c1 [Compound 76, N-(2-(cyclohexyl)ethyl)-3-((2-cyclopropyl-4-(pyridin-2-ylmethoxy)phenyl)amino)benzamide]
The EC50 of the first is 4.8-fold higher: 67 nM for the first, 14 nM for the second.

`Cc1cc(OCc2ccccn2)ccc1Nc1cccc(C(=O)NCCCC(C)C)c1` [Compound 72, 3-((2-methyl-4-(pyridin-2-ylmethoxy)phenyl)amino)-N-(4-methylpentyl)benzamide] and `CCCC(C)NC(=O)c1cccc(Nc2ccc(OCc3ccccn3)cc2C)c1` (stereo not shown) [Compound 77, N-(1-methylbutyl)-3-((2-methyl-4-(pyridin-2-ylmethoxy)phenyl)amino)benzamide] are within 1.5-fold of each other in EC50: 158 nM for the first, 124 nM for the second.

Compared with `CCc1cc(OCc2ccccn2)ccc1Nc1cccc(C(=O)NCCC2CCCCC2)c1` [Compound 75, N-(2-(cyclohexyl)ethyl)-3-((2-ethyl-4-(pyridin-2-ylmethoxy)phenyl)amino)benzamide], `O=C(NCCC1CCCCC1)Nc1cccc(Nc2ccc(OCc3ccccn3)cc2C2CC2)c1` [Compound 96, 1-(2-cyclohexylethyl)-3-[3-({2-cyclopropyl-4-[(pyridin-2-yl)methoxy]phenyl}amino)phenyl]urea] is 2.5-fold lower in EC50: 25 nM for the first, 10 nM for the second.

First: CCCC(C)NC(=O)c1cccc(Nc2ccc(OCc3ccccn3)cc2CC)c1 (stereo not shown) [Compound 78, N-(1-methylbutyl)-3-((2-ethyl-4-(pyridin-2-ylmethoxy)phenyl)amino)benzamide]
Second: NC(=O)c1cccc(Nc2ccc(OCc3ccccn3)cc2C2CC2)c1 [Compound 84, 3-((2-cyclopropyl-4-(pyridin-2-ylmethoxy)phenyl)amino)benzamide]
The EC50 of the first is 11-fold lower: 58 nM for the first, 637 nM for the second. The first is the more potent here.

First: O=S(=O)(NCCC1CCCCC1)c1cccc(Nc2ccc(OCc3ccccn3)cc2C2CC2)c1 [Compound 79, N-(2-(cyclohexyl)ethyl)-3-((2-cyclopropyl-4-(pyridin-2-ylmethoxy)phenyl)amino)benzenesulfonamide]
Second: O=C(CCC1CCCCC1)Nc1cccc(Nc2ccc(OCc3ccccn3)cc2C2CC2)c1 [Compound 80, (3-(cyclohexyl)propanamide), N-[3-([2-cyclopropyl-4-(pyridin-2-ylmethoxy)phenyl]amino)phenyl]-]
The EC50 of the first is 1.6-fold higher: 33 nM for the first, 21 nM for the second. The second is the more potent here.

First: c1ccc(COc2ccc(Nc3cccc(OCCCC4CCCCC4)c3)c(C3CC3)c2)nc1 [Compound 83, 3-(3-cyclohexylpropoxy)-N-(2-cyclopropyl-4-(pyridin-2-ylmethoxy)phenyl)aniline]
Second: CC(C)CCCOc1cccc(Nc2ccc(OCc3ccccn3)cc2C2CC2)c1 [Compound 106, 2-cyclopropyl-N-{3-[(4-methylpentyl)oxy]phenyl}-4-[(pyridin-2-yl)methoxy]aniline]
The EC50 of the first is 3.7-fold lower: 9 nM for the first, 33 nM for the second.

First: O=C(NCCC1CCCCC1)c1cccc(Nc2ccc(OCc3cccnc3)cc2C2CC2)c1 [Compound 85, N-(2-cyclohexylethyl)-3-((2-cyclopropyl-4-(pyridin-3-ylmethoxy)phenyl)amino)benzamide]
Second: O=C(NCCC1CCCC1)c1cccc(Nc2ccc(OCc3ccncc3)cc2C2CC2)c1 [Compound 89, N-(2-cyclopentylethyl)-3-((2-cyclopropyl-4-(pyridin-4-ylmethoxy)phenyl)amino)benzamide]
The EC50 of the first is 18-fold lower: 8 nM for the first, 140 nM for the second. The first is the more potent here.

First: O=C(NCCC1CCCCC1)c1cccc(Nc2ccc(OCc3ccccn3)cc2C2CC2)n1 [Compound 86, N-(2-cyclohexylethyl)-6-((2-cyclopropyl-4-(pyridin-2-ylmethoxy)phenyl)amino)picolinamide]
Second: O=C(NCCC1CCCCC1)c1ccnc(Nc2ccc(OCc3ccccn3)cc2C2CC2)c1 [Compound 90, N-(2-cyclohexylethyl)-2-((2-cyclopropyl-4-(pyridin-2-ylmethoxy)phenyl)amino)isonicotinamide]
The EC50 of the first is 6.2-fold higher: 567 nM for the first, 92 nM for the second. The second is the more potent here.

First: O=C(NCCC1CCCCC1)c1cncc(Nc2ccc(OCc3ccccn3)cc2C2CC2)c1 [Compound 88, N-(2-cyclohexylethyl)-5-((2-cyclopropyl-4-(pyridin-2-ylmethoxy)phenyl)amino)nicotinamide]
Second: c1ccc(COc2ccc(Nc3cccc(-n4cc(CC5CCCCC5)nn4)c3)c(C3CC3)c2)nc1 [Compound 100, N-{3-[4-(cyclohexylmethyl)-1H-1,2,3-triazol-1-yl]phenyl}-2-cyclopropyl-4-[(pyridin-2-yl)methoxy]aniline]
The EC50 of the first is 29-fold higher: 461 nM for the first, 16 nM for the second. The second is the more potent here.

First: CC(C)(C)c1cc(OCc2ccccc2)ccc1Nc1cccc(NC(=O)CCC2CCCCC2)c1 [Compound 91, N-(3-{[4-(benzyloxy)-2-tert-butylphenyl]amino}phenyl)-3-cyclohexylpropanamide]
Second: CSc1cc(OCc2ccccc2)ccc1Nc1cccc(NC(=O)CCC2CCCCC2)c1 [Compound 94, N-(3-{[4-(benzyloxy)-2-(methylsulfanyl)phenyl]amino}phenyl)-3-cyclohexylpropanamide]
The EC50 of the first is 3.5-fold lower: 2 nM for the first, 7 nM for the second. The first is the more potent here.

`O=C(CCC1CCCCC1)Nc1cccc(Nc2ccc(OCc3ccccc3)cc2C2=CCCC2)c1` [Compound 92, N-(3-{[4-(benzyloxy)-2-(cyclopent-1-en-1-yl)phenyl]amino}phenyl)-3-cyclohexylpropanamide] and `O=C(CCC1CCCCC1)Nc1cccc(Nc2ccc(OCc3ccccc3)cc2C2CCCC2)c1` [Compound 93, N-(3-{[4-(benzyloxy)-2-cyclopentylphenyl]amino}phenyl)-3-cyclohexylpropanamide] are the same in EC50: 4 nM for the first, 4 nM for the second.

`c1ccc(COc2ccc(Nc3cccc(NCCCC4CCCCC4)c3)c(C3CC3)c2)cc1` [Compound 95, N1-[4-(benzyloxy)-2-cyclopropylphenyl]-N3-(3-cyclohexylpropyl)benzene-1,3-diamine] and `OC(CCCC1CCCCC1)c1cccc(Nc2ccc(OCc3ccccc3)cc2C2CC2)c1` (stereo not shown) [Compound 97, 1-(3-{[4-(benzyloxy)-2-cyclopropylphenyl]amino}phenyl)-4-cyclohexylbutan-1-ol] are within 1.5-fold of each other in EC50: 8 nM for the first, 10 nM for the second.

Compared with `O=C(CCC1CCCCC1)Nc1cccc(Nc2ccc(OCc3ccc(F)cc3)cc2C(F)(F)F)c1` [Compound 99, 3-cyclohexyl-N-[3-({4-[(4-fluorophenyl)methoxy]-2-(trifluoromethyl)phenyl}amino)phenyl]propanamide], `O=C(NCCC1CCCC1)c1cccc(Nc2ccc(OCc3ccccc3)cc2C(F)(F)F)c1` [Compound 104, 3-{[4-(benzyloxy)-2-(trifluoromethyl)phenyl]amino}-N-(2-cyclopentylethyl)benzamide] is 2.2-fold higher in EC50: 13 nM for the first, 29 nM for the second. The first is the more potent here.

`CC(C)(C)c1cc(OCc2ccccc2)ccc1Nc1ccccc1C(=O)NCCC1CCCCC1` [Compound 101, 2-{[4-(benzyloxy)-2-tert-butylphenyl]amino}-N-(2-cyclohexylethyl)benzamide] and `O=C(NCCCC1CCCCC1)c1ccccc1Nc1ccc(OCc2ccccc2)cc1C1CC1` [Compound 103, 2-{[4-(benzyloxy)-2-cyclopropylphenyl]amino}-N-(3-cyclohexylpropyl)benzamide] are within 1.5-fold of each other in EC50: 21 nM for the first, 24 nM for the second.

First: Cc1c(NC(=O)C2(C#N)CC2)cccc1Nc1ccc(OCc2ccccn2)cc1C1CC1 [Compound 102, 1-cyano-N-[3-({2-cyclopropyl-4-[(pyridin-2-yl)methoxy]phenyl}amino)-2-methylphenyl]cyclopropane-1-carboxamide]
Second: Cc1c(NC(=O)C2(C(N)=O)CC2)cccc1Nc1ccc(OCc2ccccn2)cc1C1CC1 [Compound 108, N′1-[3-({2-cyclopropyl-4-[(pyridin-2-yl)methoxy]phenyl}amino)-2-methylphenyl]cyclopropane-1,1-dicarboxamide]
The EC50 of the first is 1.9-fold lower: 22 nM for the first, 41 nM for the second. The first is the more potent here.

First: Cc1c(Nc2ccc(OCc3ccccc3)cc2C2CC2)cccc1OCCCC1CCCCC1 [Compound 105, 4-(benzyloxy)-N-[3-(3-cyclohexylpropoxy)-2-methylphenyl]-2-cyclopropylaniline]
Second: O=C(NCC1CCCCC1)c1ccccc1Nc1ccc(OCc2ccccc2)cc1C1CC1 [Compound 110, 2-{[4-(benzyloxy)-2-cyclopropylphenyl]amino}-N-(cyclohexylmethyl)benzamide]
The EC50 of the first is 1.9-fold lower: 31 nM for the first, 59 nM for the second. The first is the more potent here.

`CS(=O)(=O)c1cc(OCc2ccccc2)ccc1Nc1cccc(NC(=O)CCC2CCCCC2)c1` [Compound 107, N-(3-{[4-(benzyloxy)-2-methanesulfonylphenyl]amino}phenyl)-3-cyclohexylpropanamide] and `Cc1c(Nc2ccc(OCc3ccccn3)cc2C2CC2)cccc1OP(=O)(O)O` [Compound 109, [3-({2-cyclopropyl-4-[(pyridin-2-yl)methoxy]phenyl}amino)-2-methylphenoxy]phosphonic acid] are within 1.5-fold of each other in EC50: 36 nM for the first, 48 nM for the second.
